From US8106055B2, “Substituted amide compounds” (Gruenenthal GmbH, priority 2007, dated 2012)

Key:
[1] = target: T1, human bradykinin 1 receptor (B1R) (Homo sapiens, UniProt P46663); experiment: Functional investigation on the human bradykinin 1 receptor (B1R), Ca2+ FLIPR assay in CHO K1 hB1R cells; type: cell-based; conditions: B1R antagonism human; test substance 10 μM; Ca2+ FLIPR, CHO K1 hB1R cells
T1 construct: expressed in transfected cells; host or cells: CHO K1 cells
T1 sequence (P46663 1-353): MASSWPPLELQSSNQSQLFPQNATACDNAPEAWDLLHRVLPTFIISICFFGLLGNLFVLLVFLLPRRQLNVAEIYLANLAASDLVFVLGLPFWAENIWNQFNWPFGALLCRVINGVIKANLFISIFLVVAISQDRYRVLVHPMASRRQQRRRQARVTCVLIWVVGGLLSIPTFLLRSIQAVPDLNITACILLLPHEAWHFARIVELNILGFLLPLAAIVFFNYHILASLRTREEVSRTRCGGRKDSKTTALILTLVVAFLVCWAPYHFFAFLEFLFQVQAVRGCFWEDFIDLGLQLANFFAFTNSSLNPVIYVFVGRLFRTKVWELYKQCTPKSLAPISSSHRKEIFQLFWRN
Procedure, shortened: (§1)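 Stably transfected CHO K1 cells loaded with Fluo-4; FLIPR Ca2+ fluorescence peak (ex 488/em 540 nm). Compound added first (agonism vs Lys-Des-Arg9-bradykinin ≥50 nM human, Des-Arg9-bradykinin 10 μM rat), then after 10-20 min agonist at EC80; antagonism as % inhibition, IC50 from concentration series, n=2-3, N≥2.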

[2] = target: T2, bradykinin 1 receptor (B1R) of the rat (Rattus norvegicus, UniProt P97583); experiment: Functional investigation on the rat bradykinin 1 receptor (B1R), Ca2+ FLIPR assay in CHO K1 rB1R cells; type: cell-based; conditions: B1R antagonism rat; test substance 10 μM; Ca2+ FLIPR, CHO K1 rB1R cells
T2 construct: expressed in transfected cells; host or cells: CHO K1 cells
T2 sequence (P97583 1-337): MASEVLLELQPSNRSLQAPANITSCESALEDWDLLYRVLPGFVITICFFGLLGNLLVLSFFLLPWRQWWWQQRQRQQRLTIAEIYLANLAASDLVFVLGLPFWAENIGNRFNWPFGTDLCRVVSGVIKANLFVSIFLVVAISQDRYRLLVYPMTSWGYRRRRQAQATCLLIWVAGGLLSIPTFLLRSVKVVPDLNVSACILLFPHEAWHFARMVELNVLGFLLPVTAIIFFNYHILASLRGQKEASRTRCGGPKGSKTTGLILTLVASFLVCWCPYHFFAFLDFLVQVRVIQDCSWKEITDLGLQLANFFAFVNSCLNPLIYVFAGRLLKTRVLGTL
Procedure, shortened: as §1

Structure (SMILES)	B1R Ant. h [10 μM] % Inhibition [1] [%]	B1R Ant. r [10 μM] % Inhibition [2] [%]
CN(C)C(c1ccc(F)cc1)C1CCC(NC(=O)COCCN(C)S(=O)(=O)c2c(Cl)cccc2Cl)CC1 (stereo not drawn) [Example 363]	80	29
CN(C)C(c1cccc(F)c1)C1CCC(NC(=O)COCCN2CCN(S(=O)(=O)c3ccccc3)CC2)CC1 (stereo not drawn) [Example 364]	0	−9
COc1cc(C)c(S(=O)(=O)N2CCC(OCC(=O)NC3CCC(C(c4ccc(F)cc4)N(C)C)CC3)C2)c(C)c1C (stereo not drawn) [Example 365]	48	2
COc1cc(C)c(S(=O)(=O)N2CCN(CCOCC(=O)NCC3CCC(C(c4ccc(F)cc4)N(C)C)CC3)CC2)c(C)c1C (stereo not drawn) [Example 366]	55	16
COc1ccc(S(=O)(=O)N2CCCCC2COCC(=O)NCC2CCC(C(c3ccc(Cl)cc3)N(C)C)CC2)cc1OC (stereo not drawn) [Example 367]	−9	2
CN(C)C(c1ccc(F)cc1)C1CCC(CCNC(=O)COCCN(C)S(=O)(=O)c2cccc(C(F)(F)F)c2)CC1 (stereo not drawn) [Example 368]	39	17
CN(C)C(c1ccc(F)cc1)C1CCC(NC(=O)COC2CCN(S(=O)(=O)c3ccc(Cl)cc3)C2)CC1 (stereo not drawn) [Example 370]	−14	3
Cc1ccc(S(=O)(=O)N2CCC(OCC(=O)NC3CCC(C(c4ccc(F)cc4)N(C)C)CC3)C2)cc1 (stereo not drawn) [Example 371]	7	5
COc1cc(C)c(S(=O)(=O)N(CCOCC(=O)NC2CCC(C(c3cccc(F)c3)N(C)C)CC2)Cc2ccccc2)c(C)c1 (stereo not drawn) [Example 372]	65	22
COc1ccc(S(=O)(=O)N2Cc3ccccc3CC2COCC(=O)NCC2CCC(C(CCc3ccccc3)N(C)C)CC2)cc1 (stereo not drawn) [Example 373]	98	12
COc1ccc(S(=O)(=O)N2Cc3ccccc3CC2COCC(=O)NCCC2CCC(C(c3ccc(Cl)cc3)N(C)C)CC2)cc1 (stereo not drawn) [Example 374]	18	11
CN(C)C(c1ccc(Cl)cc1)C1CCC(CCNC(=O)COC2CCN(S(=O)(=O)c3ccccc3)C2)CC1 (stereo not drawn) [Example 375]	2	6
CN(C)C(c1cccc(F)c1)C1CCC(CCNC(=O)COC2CCN(S(=O)(=O)c3ccccc3)C2)CC1 (stereo not drawn) [Example 376]	−17	12
CN(C)C(c1ccc(F)cc1)C1CCC(CCNC(=O)COCCN(C)S(=O)(=O)c2ccc(Cl)cc2)CC1 (stereo not drawn) [Example 377]	28	25
COc1cc(C)c(S(=O)(=O)N(C)CCOCC(=O)NCCC2CCC(C(c3ccc(Cl)cc3)N(C)C)CC2)c(C)c1 (stereo not drawn) [Example 378]	104	101
COc1ccc(S(=O)(=O)N(C)CCOCC(=O)NCC2CCC(C(c3ccc(Cl)cc3)N(C)C)CC2)cc1OC (stereo not drawn) [Example 379]	−5	49
CN(C)C(c1ccc(F)cc1)C1CCC(NC(=O)COC2CCN(S(=O)(=O)c3ccc(F)cc3)C2)CC1 (stereo not drawn) [Example 381]	−19	12
CN(C)C(c1ccc(F)cc1)C1CCC(NC(=O)COCCN(C)S(=O)(=O)c2c(Cl)cc(Cl)cc2Cl)CC1 (stereo not drawn) [Example 382]	103	30
COc1ccc(S(=O)(=O)N2CCCCC2CCOCC(=O)NCCC2CCC(C(c3ccc(Cl)cc3)N(C)C)CC2)cc1 (stereo not drawn) [Example 383]	77	33
CN(C)C(c1ccc(Cl)cc1)C1CCC(CNC(=O)COC2CCN(S(=O)(=O)c3ccc(Cl)cc3)C2)CC1 (stereo not drawn) [Example 384]	31	25
CN(C)C(c1ccc(F)cc1)C1CCC(CCNC(=O)COCCN(C)S(=O)(=O)c2c(Cl)cc(Cl)cc2Cl)CC1 (stereo not drawn) [Example 386]	104	20

Structure (SMILES)	B1R Ant. h [10 μM] % Inhibition [1] [%]	B1R Ant. r [10 μM] % Inhibition [2] [%]
COc1cc(C)c(S(=O)(=O)N2CCN(CCOCC(=O)NCCC3CCC(C(c4ccc(F)cc4)N(C)C)CC3)CC2)c(C)c1C (stereo not drawn) [Example 387]	75	−2
COc1cc(C)c(S(=O)(=O)N(CCOCC(=O)NCC2CCC(C(c3cccc(F)c3)N(C)C)CC2)Cc2ccccc2)c(C)c1 (stereo not drawn) [Example 388]	74	16
COc1ccc(S(=O)(=O)N2Cc3ccccc3CC2COCC(=O)NCCC2CCC(C(c3ccc(F)cc3)N(C)C)CC2)cc1 (stereo not drawn) [Example 389]	36	21
CN(C)C(c1ccc(F)cc1)C1CCC(CNC(=O)COCCN(C)S(=O)(=O)c2cccc(C(F)(F)F)c2)CC1 (stereo not drawn) [Example 390]	55	16
CN(C)C(c1ccc(F)cc1)C1CCC(CNC(=O)COC2CCN(S(=O)(=O)c3ccc(Cl)cc3Cl)C2)CC1 (stereo not drawn) [Example 391]	71	32
COc1cc(C)c(S(=O)(=O)N(C)CCOCC(=O)NCCC2CCC(C(c3ccc(F)cc3)N(C)C)CC2)c(C)c1 (stereo not drawn) [Example 392]	104	103
Cc1cc(C)c(S(=O)(=O)N2CCC(OCC(=O)NCC3CCC(C(c4ccc(Cl)cc4)N(C)C)CC3)C2)c(C)c1 (stereo not drawn) [Example 393]	97	39
CN(C)C(c1ccc(Cl)cc1)C1CCC(CNC(=O)COC2CCN(S(=O)(=O)c3ccc(F)cc3)C2)CC1 (stereo not drawn) [Example 394]	2	21
CN(C)C(c1ccc(Cl)cc1)C1CCC(CCNC(=O)COC2CCCN(S(=O)(=O)c3ccccc3)C2)CC1 (stereo not drawn) [Example 395]	27	15
CCN(CCOCC(=O)NC1CCC(C(c2ccc(F)cc2)N(C)C)CC1)S(=O)(=O)c1c(C)cc(OC)c(C)c1C (stereo not drawn) [Example 396]	70	68
COc1cc(C)c(S(=O)(=O)N2CCC(CCOCC(=O)NCCC3CCC(C(c4cccc(F)c4)N(C)C)CC3)CC2)c(C)c1C (stereo not drawn) [Example 397]	2	−11
COc1ccc(S(=O)(=O)N2CCCCC2CCOCC(=O)NCCC2CCC(C(c3ccc(F)cc3)N(C)C)CC2)cc1 (stereo not drawn) [Example 398]	80	56
CN(C)C(c1ccc(F)cc1)C1CCC(CNC(=O)COCCN(C)S(=O)(=O)c2ccc(Cl)cc2)CC1 (stereo not drawn) [Example 399]	20	29
CN(C)C(c1ccc(F)cc1)C1CCC(CNC(=O)COCCN(C)S(=O)(=O)c2ccc(F)cc2)CC1 (stereo not drawn) [Example 400]	3	9
COc1ccc(S(=O)(=O)N(C)CCOCC(=O)NC2CCC(C(c3cccc(F)c3)N(C)C)CC2)cc1OC (stereo not drawn) [Example 401]	−19	1
CN(C)C(c1ccc(F)cc1)C1CCC(CNC(=O)COC2CCN(S(=O)(=O)c3cccc(C(F)(F)F)c3)C2)CC1 (stereo not drawn) [Example 402]	0	45
COc1cc(C)c(S(=O)(=O)N2CCC(OCC(=O)NCC3CCC(C(c4ccc(Cl)cc4)N(C)C)CC3)C2)c(C)c1 (stereo not drawn) [Example 403]	106	84
CN(C)C(c1ccc(F)cc1)C1CCC(CNC(=O)COCCN(C)S(=O)(=O)c2c(Cl)cc(Cl)cc2Cl)CC1 (stereo not drawn) [Example 404]	104	33
COc1ccc(S(=O)(=O)N2CCCCC2COCC(=O)NCC2CCC(C(c3ccc(F)cc3)N(C)C)CC2)c(OC)c1 (stereo not drawn) [Example 405]	5	24
CN(C)C(c1ccc(F)cc1)C1CCC(NC(=O)COCCN(C)S(=O)(=O)c2ccc(Cl)cc2)CC1 (stereo not drawn) [Example 406]	5	12
CN(C)C(c1cccc(F)c1)C1CCC(CCNC(=O)COC2CCN(S(=O)(=O)c3ccc(F)cc3)C2)CC1 (stereo not drawn) [Example 407]	4	10
